Legend:
[1] = tested on: Salmonella typhimurium (TA98, TA100, TA1535 and TA1537); experiment: Bacterial mutation test with and without S-9; type: cell-based; details: up to 5000 μg/plate, absence and presence of S-9
Protocol: (§1) These conditions included treatments at concentrations up to 5000 μg/plate (the maximum recommended concentration according to current regulatory guidelines), in the absence and in the presence of a rat liver metabolic activation system (S-9).

[2] = tested on: Escherichia coli (WP2 uvrA pKM101); experiment: Bacterial mutation test with and without S-9; type: cell-based; details: up to 5000 μg/plate, absence and presence of S-9
Protocol: as §1

[3] = tested on: patients with postpartum depression (PPD); experiment: Open-label clinical trial of inhaled 5-MeO-DMT (single-day IDR) in postpartum depression; one patient so far, received 6 mg then 12 mg
Protocol: The single-arm, open-label clinical trial will involve 15 adult female patients with clinically diagnosed postpartum depression (PPD).
The second dose (12 mg) will only be administered if: • a. […] The 6 mg dose was safe and well-tolerated according to the investigator, • c. Any psychoactive effects (PsE) of the prior dose have subsided, and • d. Pre-dose vital parameters and forced expiratory volume in one second (FEV1) are in normal range, or if outside of the normal range, are not clinically significant according to the investigator. • 3. Similarly, a third dose (18 mg) will only be administered if: • a. […] The 12 mg dose was safe and well-tolerated according to the investigator, and • c. Any PsE of the prior dose have subsided, and • d. Pre-dose vital parameters and forced expiratory volume in one second (FEV1) are in normal range, or if outside of the normal range, are not clinically significant according to the investigator.
The patients will be assessed for a peak psychedelic experience (based on a patient-scored visual analogue scale, the PE scale), sedation, and other endpoints after dosing.
Follow-up visits are planned for Day 1, and Day 7 after the dosing day.
The following criteria must be met by all patients considered for clinical trial participation: • 1. Is female and in the age range between 18 and 45 years (inclusive) at screening. • 2. Has a body mass index (BMI) in the range of 18.5 and 35 kg/m^2 (inclusive) at screening. • 3. Meets the trial criteria for PPD as assessed by a trial psychiatrist or registered psychologist: • a. Diagnosis of Major Depressive Disorder without psychotic features, confirmed by the Mini-International Neuropsychiatric Interview (MINI), with peri-partum onset that began no earlier than gestation and no later than the first 4 weeks postpartum. • b. Has a Montgomery-Åsberg Depression Rating Scale (MADRS) total score of equal to or greater than 28 at screening and pre-dose on Day 0. • 6. […] Patients must have a negative pregnancy test at screening and on the pre-test day (Day-1). • 5. Is willing to delay start of other antidepressant or anxiety medication until after the end of the trial at Day 7 and agrees to keep any psychotherapy unchanged during the trial.

[4] = Pharmacokinetics of 5-MeO-DMT and bufotenine after a single inhaled dose; type: in vivo, human
Protocol: Blood samples were obtained at 1; 2; 4; 7; 10; 15; 20; 30; 45 min and 1; 1.5; 2; 3; 4 hours after administration.
PK parameters were generated by algebraic analysis of the concentration versus time plots for each individual. The analysis was carried out using the software Phoenix WinNonlin 6.3.

COc1ccc2[nH]cc(CCN(C)C)c2c1 [5-MeO-DMT]
Mutation induction [1]: did not induce mutation
Mutation induction [2]: did not induce mutation
ECG (3 hours), safety laboratory analyses (7 days), CADSS (3 hours, 1 day, 7 days) ([3]; n=1): unremarkable
MADRS response (>=50% improvement) and remission (total <=10) criteria ([3]; n=1): fulfilled standard criteria for MADRS response
Onset of clinical response ([3]; n=1): ≤ 2 h
Time to clinical remission ([3]; n=1): ≤ 2 h
Tolerability of inhalation procedure ([3]; n=1): well tolerated with no inhalation-related adverse events
Total MADRS improvement ([3]; n=1, 2 hr): 24
Total MADRS score ([3]; n=1, 2 hr, baseline 29): 5
Reported adverse events (cramping left abdominal pain, headache) ([3]; n=1, Day 0): mild, short-lasting and resolved spontaneously
BPRS Tension improvement ([3]; n=1, Day 1): 5
Total MADRS improvement ([3]; n=1, Day 1): 29
Total MADRS score ([3]; n=1, Day 1, baseline 29): 0
Total MADRS improvement ([3]; n=1, Day 7): 28
BIMF functional domain Adjustment score ([3]; n=1, Day 7, Day 0 5, maximum 12): 6
BIMF functional domain Self-Care score ([3]; n=1, Day 7, Day 0 9, maximum 18): 13
BIMF functional domain Infant Care score ([3]; n=1, Day 7, Day 0 12, maximum 12): 12
BIMF functional domain Mother-Child Interaction score ([3]; n=1, Day 7, Day 0 15, maximum 18): 17
BIMF functional domain Social Support score ([3]; n=1, Day 7, Day 0 17, maximum 18): 18
BIMF functional domain Management score ([3]; n=1, Day 7, Day 0 28, maximum 36): 33
BIMF functional domain Psychological Well-being score ([3]; n=1, Day 7, Day 0 44, maximum 60): 53
BIMF item 19 (As time goes on, I am getting better at taking care of my baby) score ([3]; n=1, Day 7, Day 0 score 0): 1
BIMF item 16 (I worry about how other people judge me (as a mother)) score ([3]; n=1, Day 7, Day 0 score 3): 5
BIMF item 13 (I am taking good care of my physical needs) score ([3]; n=1, Day 7, Day 0 score 4): 5
BIMF item 5 (I am able to relax and enjoy time with my baby) score ([3]; n=1, Day 7, Day 0 score 5): 6
BIMF item 9 (I am getting enough encouragement from other people) score ([3]; n=1, Day 7, Day 0 score 5): 6
BIMF item 10 (I trust my own feelings (instincts) when it comes to taking care of my baby) score ([3]; n=1, Day 7, Day 0 score 5): 6
BIMF item 11 (I take a little time each week to do something for myself) score ([3]; n=1, Day 7, Day 0 score 5): 6
BIMF item 17 (I am able to take care of my baby and my other responsibilities) score ([3]; n=1, Day 7, Day 0 score 5): 5
BIMF item 3 (I am comfortable with the way I've chosen to feed my baby) score ([3]; n=1, Day 7, Day 0 score 6): 6
BIMF item 6 (There are people in my life that I can trust to care for my baby when I need a break) score ([3]; n=1, Day 7, Day 0 score 6): 6
BIMF item 8 (I am getting enough adult interaction) score ([3]; n=1, Day 7, Day 0 score 6): 6
BIMF item 12 (I am taking good care of my baby's physical needs) score ([3]; n=1, Day 7, Day 0 score 6): 6
BIMF item 14 (I make good decisions about my baby's health and well being) score ([3]; n=1, Day 7, Day 0 score 6): 6
BIMF item 20 (I am satisfied with the job I am doing as a new mother) score ([3]; n=1, Day 7, Day 0 score 6): 5
Total MADRS score ([3]; n=1, Day 7, baseline 29): 1
BIMF total score improvement ([3]; n=1, Day 7, from 92): 14%
BIMF TOTAL Δ ([3]; n=1, Day 7 vs Day 0): 13
BIMF functional domain Adjustment % Improvement ([3]; n=1, Day 7 vs Day 0): 20.00%
BIMF functional domain Adjustment Δ ([3]; n=1, Day 7 vs Day 0): 1
BIMF functional domain Infant Care % Improvement ([3]; n=1, Day 7 vs Day 0): 0.00%
BIMF functional domain Infant Care Δ ([3]; n=1, Day 7 vs Day 0): 0
BIMF functional domain Management % Improvement ([3]; n=1, Day 7 vs Day 0): 18%
BIMF functional domain Management Δ ([3]; n=1, Day 7 vs Day 0): 5
BIMF functional domain Mother-Child Interaction Δ ([3]; n=1, Day 7 vs Day 0): 2
BIMF functional domain Psychological Well-being Δ ([3]; n=1, Day 7 vs Day 0): 9
BIMF functional domain Self-Care % Improvement ([3]; n=1, Day 7 vs Day 0): 44%
BIMF functional domain Self-Care Δ ([3]; n=1, Day 7 vs Day 0): 4
BIMF functional domain Social Support Δ ([3]; n=1, Day 7 vs Day 0): 1
BIMF item 1 (I am a good mother) Δ ([3]; n=1, Day 7 vs Day 0): 0
BIMF item 2 (I feel rested) Δ ([3]; n=1, Day 7 vs Day 0): 2
BIMF item 3 (I am comfortable with the way I've chosen to feed my baby) Δ ([3]; n=1, Day 7 vs Day 0): 0
BIMF item 4 (My baby and I understand each other) Δ ([3]; n=1, Day 7 vs Day 0): 0
BIMF item 5 (I am able to relax and enjoy time with my baby) Δ ([3]; n=1, Day 7 vs Day 0): 1
BIMF item 6 (There are people in my life that I can trust to care for my baby when I need a break) Δ ([3]; n=1, Day 7 vs Day 0): 0
BIMF item 8 (I am getting enough adult interaction) Δ ([3]; n=1, Day 7 vs Day 0): 0
BIMF item 9 (I am getting enough encouragement from other people) Δ ([3]; n=1, Day 7 vs Day 0): 1
BIMF item 10 (I trust my own feelings (instincts) when it comes to taking care of my baby) Δ ([3]; n=1, Day 7 vs Day 0): 1
BIMF item 11 (I take a little time each week to do something for myself) Δ ([3]; n=1, Day 7 vs Day 0): 1
BIMF item 12 (I am taking good care of my baby's physical needs) Δ ([3]; n=1, Day 7 vs Day 0): 0
BIMF item 13 (I am taking good care of my physical needs) Δ ([3]; n=1, Day 7 vs Day 0): 1
BIMF item 14 (I make good decisions about my baby's health and well being) Δ ([3]; n=1, Day 7 vs Day 0): 0
BIMF item 15 (My baby and I are getting into a routine) Δ ([3]; n=1, Day 7 vs Day 0): 1
BIMF item 16 (I worry about how other people judge me (as a mother)) Δ ([3]; n=1, Day 7 vs Day 0): 2
BIMF item 17 (I am able to take care of my baby and my other responsibilities) Δ ([3]; n=1, Day 7 vs Day 0): 0
BIMF item 18 (Anxiety or worry often interferes with my mothering ability) Δ ([3]; n=1, Day 7 vs Day 0): 3
BIMF item 19 (As time goes on, I am getting better at taking care of my baby) Δ ([3]; n=1, Day 7 vs Day 0): 1
BIMF item 20 (I am satisfied with the job I am doing as a new mother) Δ ([3]; n=1, Day 7 vs Day 0): −1
BPRS Tension improvement ([3]; n=1, Discharge): 5
Vital parameters ([3]; n=1, shortly after administration): temporary, clinically non-relevant increase in heart rate and blood pressure
Detectability in plasma ([4]; after 3 hours, 6, 12, 18 mg): no longer detectable
Accumulation upon repeated administration ([4]; within a time frame of 1 to 4 hours): No accumulation
